Values belong to the molecule of their own block, whether it stands above or below them.
Columns and labels:
[1] = target: Serine/threonine-protein kinase B-raf (Homo sapiens, UniProt P15056); assay: Inhibition of BRAF (unknown origin) using MEK1 K97R mutant as substrate preincubated for 60 to 120 mins followed by substrate addition measured after 2 hrs by TR-FRET assay
[2] = Inhibition of SCF (SKP2) complex (unknown origin) expressed in baculovirus infected Sf9 cells assessed as decrease in phospho-p27 Kip1 ubiquitination preincubated for 10 to 45 mins followed by phospho-p27 Kip1 addition measured after 1 to 3 hrs by immunoblot method; set-up: species or system Homo sapiens
[3] = target: Geranylgeranyl transferase type I (Homo sapiens, UniProt P49354+P53609); assay: Inhibition of GGTase1 isolated from Kirsten virus-transformed human osteosarcoma cells using biotin-YRASNRSCAIL peptide as substrate after 120 mins in presence of [ 1-[ 3 H](n)]geranylgeranylpyrophosphate by scintillation proximity assay
[4] = target: Protein farnesyltransferase (Homo sapiens, UniProt P49354+P49356); assay: Inhibition of FTase isolated from human Burkitt's lymphoma cells assessed as decrease in transfer of [3H]farnesyl from [3H]farnesyl PPi to H-Ras-CVLS
[5] = target: c-Jun N-terminal kinase, JNK (Homo sapiens, UniProt P45983+P53779+P45984); assay: Inhibition of JNK (unknown origin); assay type: protein assay
Protein O-GlcNAcase = target: T1, Protein O-GlcNAcase (Rattus norvegicus, UniProt Q8VIJ5); assay: Inhibition of O-GlcNAcase in rat PC12 cells assessed as induction of OGlcNAcylation after 24 hrs by Western blot method; assay type: cell-based
T1 sequence (Q8VIJ5 whole entry): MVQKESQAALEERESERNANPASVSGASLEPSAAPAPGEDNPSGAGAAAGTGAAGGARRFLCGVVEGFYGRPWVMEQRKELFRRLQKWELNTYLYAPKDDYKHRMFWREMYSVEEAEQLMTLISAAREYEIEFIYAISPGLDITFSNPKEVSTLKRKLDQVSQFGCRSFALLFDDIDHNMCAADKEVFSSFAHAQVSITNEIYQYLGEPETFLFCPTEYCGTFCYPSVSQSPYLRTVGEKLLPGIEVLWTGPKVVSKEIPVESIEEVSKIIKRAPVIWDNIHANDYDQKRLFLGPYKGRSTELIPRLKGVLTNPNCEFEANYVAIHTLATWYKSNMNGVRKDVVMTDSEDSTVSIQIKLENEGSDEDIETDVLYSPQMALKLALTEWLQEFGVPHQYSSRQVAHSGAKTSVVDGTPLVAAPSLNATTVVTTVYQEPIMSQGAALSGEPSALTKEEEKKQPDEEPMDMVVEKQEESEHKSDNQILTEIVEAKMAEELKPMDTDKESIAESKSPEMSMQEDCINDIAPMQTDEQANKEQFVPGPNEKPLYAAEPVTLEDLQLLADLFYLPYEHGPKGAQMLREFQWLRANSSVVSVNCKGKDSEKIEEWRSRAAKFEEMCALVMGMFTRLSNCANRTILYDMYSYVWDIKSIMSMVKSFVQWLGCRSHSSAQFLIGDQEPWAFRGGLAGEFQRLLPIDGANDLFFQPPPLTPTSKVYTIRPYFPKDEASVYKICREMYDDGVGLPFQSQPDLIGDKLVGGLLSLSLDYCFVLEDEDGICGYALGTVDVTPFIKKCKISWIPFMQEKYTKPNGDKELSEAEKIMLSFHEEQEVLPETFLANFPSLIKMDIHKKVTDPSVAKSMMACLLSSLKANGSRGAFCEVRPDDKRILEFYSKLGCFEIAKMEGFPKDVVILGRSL

[6] = target: T2, Ubiquitin-like modifier-activating enzyme 6 (Homo sapiens, UniProt A0AVT1); assay: Inhibition of UBA6 (unknown origin) assessed as decrease in formation of E2-UBL thioester reaction product
T2 sequence (A0AVT1 whole entry): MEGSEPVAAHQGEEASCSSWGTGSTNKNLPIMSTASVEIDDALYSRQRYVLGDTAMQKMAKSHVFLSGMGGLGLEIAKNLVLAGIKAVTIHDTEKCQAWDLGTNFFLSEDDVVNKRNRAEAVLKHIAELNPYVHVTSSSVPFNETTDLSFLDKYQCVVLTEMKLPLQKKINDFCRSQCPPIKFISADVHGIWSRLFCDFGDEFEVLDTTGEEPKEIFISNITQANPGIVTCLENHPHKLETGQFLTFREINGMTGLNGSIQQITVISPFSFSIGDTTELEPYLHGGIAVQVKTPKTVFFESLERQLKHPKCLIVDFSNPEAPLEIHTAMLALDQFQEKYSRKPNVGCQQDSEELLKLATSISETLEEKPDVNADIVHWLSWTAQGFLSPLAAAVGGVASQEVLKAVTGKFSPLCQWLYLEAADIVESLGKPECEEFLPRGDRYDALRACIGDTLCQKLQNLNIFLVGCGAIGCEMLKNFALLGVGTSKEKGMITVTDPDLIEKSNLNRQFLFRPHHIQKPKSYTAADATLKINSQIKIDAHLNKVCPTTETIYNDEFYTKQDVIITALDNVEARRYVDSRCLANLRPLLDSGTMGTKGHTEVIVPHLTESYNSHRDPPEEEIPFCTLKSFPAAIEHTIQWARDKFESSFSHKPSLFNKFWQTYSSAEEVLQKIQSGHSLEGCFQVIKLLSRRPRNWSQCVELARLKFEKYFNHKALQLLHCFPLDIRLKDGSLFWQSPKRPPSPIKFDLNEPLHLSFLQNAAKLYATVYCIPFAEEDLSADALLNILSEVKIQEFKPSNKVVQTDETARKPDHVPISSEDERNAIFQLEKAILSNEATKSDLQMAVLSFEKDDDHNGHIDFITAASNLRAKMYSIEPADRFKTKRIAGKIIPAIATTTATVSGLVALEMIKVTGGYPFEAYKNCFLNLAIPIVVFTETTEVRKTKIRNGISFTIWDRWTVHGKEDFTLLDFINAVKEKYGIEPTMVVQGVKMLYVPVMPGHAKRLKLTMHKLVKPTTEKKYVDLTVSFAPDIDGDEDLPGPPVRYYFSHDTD

[7] = target: T3, Ubiquitin-like modifier-activating enzyme ATG7 (Homo sapiens, UniProt O95352); assay: Inhibition of ATG7 (unknown origin) assessed as decrease in formation of E2-UBL thioester reaction product
T3 sequence (O95352 whole entry): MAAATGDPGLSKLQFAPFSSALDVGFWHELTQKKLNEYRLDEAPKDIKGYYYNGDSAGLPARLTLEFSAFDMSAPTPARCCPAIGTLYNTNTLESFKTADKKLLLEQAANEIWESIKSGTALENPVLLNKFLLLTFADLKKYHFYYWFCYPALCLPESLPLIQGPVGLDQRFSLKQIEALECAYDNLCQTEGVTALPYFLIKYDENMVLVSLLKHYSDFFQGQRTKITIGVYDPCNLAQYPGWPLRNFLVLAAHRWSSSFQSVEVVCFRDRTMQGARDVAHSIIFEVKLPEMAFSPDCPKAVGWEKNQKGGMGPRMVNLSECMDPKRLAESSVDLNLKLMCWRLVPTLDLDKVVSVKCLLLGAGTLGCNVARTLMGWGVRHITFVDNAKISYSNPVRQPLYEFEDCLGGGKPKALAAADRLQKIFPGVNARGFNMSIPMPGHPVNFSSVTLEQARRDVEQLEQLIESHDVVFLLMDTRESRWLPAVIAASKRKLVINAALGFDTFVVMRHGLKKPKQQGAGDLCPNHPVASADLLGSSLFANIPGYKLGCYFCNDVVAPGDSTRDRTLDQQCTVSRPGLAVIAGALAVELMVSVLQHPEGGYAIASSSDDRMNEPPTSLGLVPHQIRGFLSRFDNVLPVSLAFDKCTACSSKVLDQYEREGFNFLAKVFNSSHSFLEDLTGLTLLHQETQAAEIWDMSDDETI

[8] = Inhibition of UAE (unknown origin) assessed as decrease in formation of E2-UBL thioester reaction product; set-up: species or system Homo sapiens
SUMO-activating enzyme = SUMO-activating enzyme (Homo sapiens, UniProt Q9UBT2); assay: Inhibition of SAE (unknown origin) assessed as decrease in formation of E2-UBL thioester reaction product; assay type: protein-complex assay
Sequence of SUMO-activating enzyme (Q9UBE0 whole entry): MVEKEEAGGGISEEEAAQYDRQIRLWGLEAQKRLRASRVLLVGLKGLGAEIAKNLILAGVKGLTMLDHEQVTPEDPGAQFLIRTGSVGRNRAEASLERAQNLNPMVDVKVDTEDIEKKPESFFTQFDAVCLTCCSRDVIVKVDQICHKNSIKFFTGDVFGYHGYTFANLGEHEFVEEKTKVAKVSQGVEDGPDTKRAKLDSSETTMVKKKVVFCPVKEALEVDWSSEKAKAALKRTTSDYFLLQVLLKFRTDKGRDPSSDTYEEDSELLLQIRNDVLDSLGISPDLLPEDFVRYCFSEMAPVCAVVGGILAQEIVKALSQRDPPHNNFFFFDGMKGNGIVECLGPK
Sequence of SUMO-activating enzyme (Q9UBT2 whole entry): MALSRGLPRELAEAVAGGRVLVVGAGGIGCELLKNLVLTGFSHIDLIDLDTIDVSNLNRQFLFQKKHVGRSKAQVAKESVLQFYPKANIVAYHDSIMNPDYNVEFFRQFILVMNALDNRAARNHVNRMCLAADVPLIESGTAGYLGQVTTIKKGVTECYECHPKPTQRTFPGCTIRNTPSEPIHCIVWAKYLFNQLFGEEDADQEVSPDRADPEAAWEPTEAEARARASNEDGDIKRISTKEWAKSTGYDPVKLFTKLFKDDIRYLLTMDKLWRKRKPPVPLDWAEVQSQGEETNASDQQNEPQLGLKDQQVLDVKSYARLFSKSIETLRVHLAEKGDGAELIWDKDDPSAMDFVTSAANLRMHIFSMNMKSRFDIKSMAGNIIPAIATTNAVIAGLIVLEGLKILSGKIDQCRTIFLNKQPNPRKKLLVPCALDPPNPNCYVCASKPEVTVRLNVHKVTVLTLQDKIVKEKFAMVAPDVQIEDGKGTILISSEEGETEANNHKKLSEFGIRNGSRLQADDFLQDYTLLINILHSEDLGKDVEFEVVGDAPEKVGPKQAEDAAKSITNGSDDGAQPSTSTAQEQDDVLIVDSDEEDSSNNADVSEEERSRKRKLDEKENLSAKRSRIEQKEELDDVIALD

Sharpin/RBCK1/RNF31 = target: T4, Sharpin/RBCK1/RNF31 (Homo sapiens, UniProt Q96EP0+Q9BYM8+Q9H0F6); assay: Inhibition of petit-LUBAC (unknown origin)-mediated ubiquitylation expressed in Escherichia coli BL21 after 2 hrs in presence of E1, UbcH5c, E3 and ubiquitin
T4 sequence (Q9H0F6 whole entry): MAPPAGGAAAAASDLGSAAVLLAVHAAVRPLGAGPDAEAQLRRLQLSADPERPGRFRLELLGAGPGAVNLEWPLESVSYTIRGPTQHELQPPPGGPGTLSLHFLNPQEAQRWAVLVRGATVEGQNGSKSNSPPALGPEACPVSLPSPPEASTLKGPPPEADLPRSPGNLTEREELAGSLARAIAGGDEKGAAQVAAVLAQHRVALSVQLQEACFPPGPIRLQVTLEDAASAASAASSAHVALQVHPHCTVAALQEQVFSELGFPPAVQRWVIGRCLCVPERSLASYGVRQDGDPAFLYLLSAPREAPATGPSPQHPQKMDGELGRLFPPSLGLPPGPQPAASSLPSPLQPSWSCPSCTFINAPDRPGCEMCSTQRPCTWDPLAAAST
T4 sequence (Q9BYM8 whole entry): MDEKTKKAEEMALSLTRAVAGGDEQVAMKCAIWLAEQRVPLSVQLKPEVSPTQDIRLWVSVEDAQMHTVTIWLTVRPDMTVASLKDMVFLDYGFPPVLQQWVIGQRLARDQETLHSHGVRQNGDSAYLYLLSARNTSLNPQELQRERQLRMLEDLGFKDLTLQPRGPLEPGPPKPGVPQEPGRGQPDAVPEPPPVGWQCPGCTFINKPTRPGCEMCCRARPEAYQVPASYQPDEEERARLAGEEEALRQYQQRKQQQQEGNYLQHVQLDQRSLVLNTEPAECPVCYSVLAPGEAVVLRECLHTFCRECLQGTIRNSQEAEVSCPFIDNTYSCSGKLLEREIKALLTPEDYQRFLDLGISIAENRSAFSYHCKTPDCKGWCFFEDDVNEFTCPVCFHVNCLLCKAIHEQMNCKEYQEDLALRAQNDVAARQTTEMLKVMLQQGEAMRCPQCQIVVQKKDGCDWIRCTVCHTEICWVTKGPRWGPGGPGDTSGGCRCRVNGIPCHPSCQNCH
T4 sequence (Q96EP0 whole entry): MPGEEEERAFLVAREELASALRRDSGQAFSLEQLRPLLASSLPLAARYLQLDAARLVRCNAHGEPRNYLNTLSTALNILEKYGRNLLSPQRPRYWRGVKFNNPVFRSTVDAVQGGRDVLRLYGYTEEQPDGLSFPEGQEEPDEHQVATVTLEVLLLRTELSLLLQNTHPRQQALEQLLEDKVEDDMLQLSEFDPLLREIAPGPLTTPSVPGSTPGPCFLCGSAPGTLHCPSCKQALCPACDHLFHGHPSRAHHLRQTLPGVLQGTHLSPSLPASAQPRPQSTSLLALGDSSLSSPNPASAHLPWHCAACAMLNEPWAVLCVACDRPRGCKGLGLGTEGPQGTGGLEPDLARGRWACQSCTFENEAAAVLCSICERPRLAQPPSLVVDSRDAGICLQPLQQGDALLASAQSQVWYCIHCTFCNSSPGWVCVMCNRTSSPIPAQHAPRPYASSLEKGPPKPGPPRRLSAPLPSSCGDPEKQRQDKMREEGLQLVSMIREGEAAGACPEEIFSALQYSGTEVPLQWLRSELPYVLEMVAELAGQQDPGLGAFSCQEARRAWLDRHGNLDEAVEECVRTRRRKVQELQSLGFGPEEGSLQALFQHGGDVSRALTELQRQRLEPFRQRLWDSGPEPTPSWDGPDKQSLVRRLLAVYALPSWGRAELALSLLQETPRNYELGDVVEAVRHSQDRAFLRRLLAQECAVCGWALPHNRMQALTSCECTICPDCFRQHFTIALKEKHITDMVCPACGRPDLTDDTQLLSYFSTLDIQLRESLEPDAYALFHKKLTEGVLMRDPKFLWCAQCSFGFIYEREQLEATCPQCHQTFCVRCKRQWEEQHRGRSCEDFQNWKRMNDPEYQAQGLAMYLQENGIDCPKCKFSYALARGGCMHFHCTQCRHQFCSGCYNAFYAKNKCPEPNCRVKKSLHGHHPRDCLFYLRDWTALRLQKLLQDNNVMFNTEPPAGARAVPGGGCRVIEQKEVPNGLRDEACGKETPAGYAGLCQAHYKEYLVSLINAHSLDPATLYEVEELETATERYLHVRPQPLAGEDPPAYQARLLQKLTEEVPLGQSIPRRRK

[9] = target: Histone acetyltransferase p300 (Homo sapiens, UniProt Q09472); assay: Inhibition of full length His6-tagged recombinant p300 (unknown origin) expressed in baculovirus infected Sf21 cells using human histone as substrate preincubated for 10 mins followed by [3H]acetyl-CoA addition measured after 10 mins by liquid scintillation counting method
Sequence of Histone acetyltransferase p300 (Q09472 whole entry): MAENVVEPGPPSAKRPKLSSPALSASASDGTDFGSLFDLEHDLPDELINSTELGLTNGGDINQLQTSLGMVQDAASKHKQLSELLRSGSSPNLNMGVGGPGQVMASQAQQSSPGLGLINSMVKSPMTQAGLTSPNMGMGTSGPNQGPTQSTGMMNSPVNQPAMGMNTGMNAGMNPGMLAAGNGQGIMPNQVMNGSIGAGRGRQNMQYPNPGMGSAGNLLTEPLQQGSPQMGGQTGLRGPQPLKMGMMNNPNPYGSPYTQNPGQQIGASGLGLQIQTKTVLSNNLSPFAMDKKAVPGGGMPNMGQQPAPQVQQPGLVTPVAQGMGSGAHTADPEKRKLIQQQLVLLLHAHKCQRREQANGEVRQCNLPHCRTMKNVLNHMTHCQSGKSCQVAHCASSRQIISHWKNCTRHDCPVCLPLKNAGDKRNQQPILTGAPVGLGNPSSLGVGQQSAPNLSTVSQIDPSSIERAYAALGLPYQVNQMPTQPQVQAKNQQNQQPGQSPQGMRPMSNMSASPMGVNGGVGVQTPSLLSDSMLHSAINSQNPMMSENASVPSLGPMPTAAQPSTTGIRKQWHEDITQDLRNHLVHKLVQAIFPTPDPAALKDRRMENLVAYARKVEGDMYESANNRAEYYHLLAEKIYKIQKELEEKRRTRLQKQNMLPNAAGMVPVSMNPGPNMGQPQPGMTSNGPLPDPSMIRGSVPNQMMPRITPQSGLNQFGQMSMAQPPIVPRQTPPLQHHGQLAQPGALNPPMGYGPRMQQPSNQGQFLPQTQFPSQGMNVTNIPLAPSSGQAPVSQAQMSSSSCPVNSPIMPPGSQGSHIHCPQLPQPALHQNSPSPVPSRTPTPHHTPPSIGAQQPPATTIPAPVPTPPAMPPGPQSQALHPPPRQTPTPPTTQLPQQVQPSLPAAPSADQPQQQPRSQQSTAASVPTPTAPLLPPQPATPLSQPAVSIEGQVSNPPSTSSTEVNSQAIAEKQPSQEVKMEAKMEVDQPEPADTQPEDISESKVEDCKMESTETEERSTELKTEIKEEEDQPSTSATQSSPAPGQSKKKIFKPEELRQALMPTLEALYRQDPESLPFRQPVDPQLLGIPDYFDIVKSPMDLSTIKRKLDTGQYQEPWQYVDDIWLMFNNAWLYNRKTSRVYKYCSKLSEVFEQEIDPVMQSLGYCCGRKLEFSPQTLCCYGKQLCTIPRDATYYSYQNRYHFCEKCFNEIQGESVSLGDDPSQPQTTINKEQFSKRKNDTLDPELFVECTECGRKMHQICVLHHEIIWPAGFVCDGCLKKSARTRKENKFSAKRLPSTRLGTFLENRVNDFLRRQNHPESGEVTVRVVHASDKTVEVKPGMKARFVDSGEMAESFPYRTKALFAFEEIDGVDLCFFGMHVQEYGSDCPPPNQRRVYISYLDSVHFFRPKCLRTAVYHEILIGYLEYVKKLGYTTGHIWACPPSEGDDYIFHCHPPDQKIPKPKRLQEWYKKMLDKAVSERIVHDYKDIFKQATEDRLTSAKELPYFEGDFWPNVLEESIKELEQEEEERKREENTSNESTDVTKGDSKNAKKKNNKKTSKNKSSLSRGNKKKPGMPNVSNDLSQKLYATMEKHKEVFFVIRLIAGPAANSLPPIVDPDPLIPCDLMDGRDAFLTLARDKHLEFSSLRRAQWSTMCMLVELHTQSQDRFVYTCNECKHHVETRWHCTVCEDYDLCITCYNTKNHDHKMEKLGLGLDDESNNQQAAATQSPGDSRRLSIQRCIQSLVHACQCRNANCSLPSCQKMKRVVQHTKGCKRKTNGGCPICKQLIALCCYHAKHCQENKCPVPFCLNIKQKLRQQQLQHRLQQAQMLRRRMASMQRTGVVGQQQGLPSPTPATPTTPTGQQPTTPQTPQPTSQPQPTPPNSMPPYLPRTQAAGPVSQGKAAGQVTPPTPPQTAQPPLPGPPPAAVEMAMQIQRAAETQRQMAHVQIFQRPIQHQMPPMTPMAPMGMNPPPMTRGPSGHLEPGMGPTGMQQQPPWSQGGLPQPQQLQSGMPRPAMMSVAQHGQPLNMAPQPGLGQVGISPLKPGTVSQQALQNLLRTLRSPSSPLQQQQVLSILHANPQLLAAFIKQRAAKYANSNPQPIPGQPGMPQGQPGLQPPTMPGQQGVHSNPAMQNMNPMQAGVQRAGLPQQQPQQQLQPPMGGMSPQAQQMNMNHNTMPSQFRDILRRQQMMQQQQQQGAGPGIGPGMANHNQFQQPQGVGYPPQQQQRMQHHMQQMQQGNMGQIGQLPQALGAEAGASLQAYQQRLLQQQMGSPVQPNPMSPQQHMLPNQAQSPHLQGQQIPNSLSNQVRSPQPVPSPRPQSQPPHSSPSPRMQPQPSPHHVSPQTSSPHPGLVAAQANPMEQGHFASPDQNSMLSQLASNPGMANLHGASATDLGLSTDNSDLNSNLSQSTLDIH

Sequence of Serine/threonine-protein kinase B-raf (P15056 whole entry): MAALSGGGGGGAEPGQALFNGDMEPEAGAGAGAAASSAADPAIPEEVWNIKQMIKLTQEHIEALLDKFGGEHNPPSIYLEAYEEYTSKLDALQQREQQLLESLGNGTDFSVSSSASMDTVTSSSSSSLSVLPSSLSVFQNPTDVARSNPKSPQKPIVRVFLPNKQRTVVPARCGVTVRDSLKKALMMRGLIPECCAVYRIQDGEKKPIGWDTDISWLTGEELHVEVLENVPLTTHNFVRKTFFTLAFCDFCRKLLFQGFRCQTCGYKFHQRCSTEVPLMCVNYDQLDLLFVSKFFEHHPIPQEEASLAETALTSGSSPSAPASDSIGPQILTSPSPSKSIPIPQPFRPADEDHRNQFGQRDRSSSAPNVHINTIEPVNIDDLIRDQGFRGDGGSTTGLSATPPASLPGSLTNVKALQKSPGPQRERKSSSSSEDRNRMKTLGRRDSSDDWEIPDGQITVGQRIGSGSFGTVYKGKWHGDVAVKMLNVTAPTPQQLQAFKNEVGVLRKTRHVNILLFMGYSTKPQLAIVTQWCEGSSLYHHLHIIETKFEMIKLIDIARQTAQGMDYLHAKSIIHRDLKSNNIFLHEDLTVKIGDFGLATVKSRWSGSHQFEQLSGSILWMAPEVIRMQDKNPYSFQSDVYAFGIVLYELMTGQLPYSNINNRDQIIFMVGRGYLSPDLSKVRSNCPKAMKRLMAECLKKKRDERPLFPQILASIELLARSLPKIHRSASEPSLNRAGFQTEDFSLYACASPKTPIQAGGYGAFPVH

SMILES: Cn1cncc1[C@@](N)(c1ccc(Cl)cc1)c1ccc2c(c1)c(-c1cccc(Cl)c1)cc(=O)n2C [TIPIFARNIB]
- IC50 [3]: > 1000 nM

SMILES: Nc1nnc(Sc2ncc([N+](=O)[O-])s2)s1
- IC50 [5]: 700 nM

SMILES: CCNC1=N[C@@H]2[C@@H](O)[C@H](O)[C@@H](CO)O[C@@H]2S1
- EC50 (Protein O-GlcNAcase): 30 nM

SMILES: NS(=O)(=O)OC[C@@H]1C[C@@H](n2ccc3c(N[C@H]4CCc5ccccc54)ncnc32)C[C@@H]1O [PEVONEDISTAT]
- IC50 [6]: > 1000 nM
- IC50 [7]: > 1000 nM
- IC50 [8]: > 1000 nM
- IC50 (SUMO-activating enzyme): > 1000 nM

SMILES: CN1C(=O)[C@]23CC4=CC=C[C@H](O)[C@H]4N2C(=O)[C@@]1(CO)SS3 [GLIOTOXIN]
- IC50 (Sharpin/RBCK1/RNF31): 510 nM

Continued, values first:

- IC50 [1]: 23 nM
SMILES: O=C1CCc2c(Oc3ccc4c(c3)[C@@H]3[C@H](O4)[C@H]3c3nc4ccc(C(F)(F)F)cc4[nH]3)ccnc2N1 [LIFIRAFENIB]

- IC50 [2]: 1700 nM
SMILES: COCC(=O)N[C@@H](Cc1ccc(-c2cc(Cl)cc(Cl)c2)cc1)[C@H](O)[C@@H](O)C(=O)O

- IC50 [4]: 1.4 nM
SMILES: CSCC[C@@H](NC(=O)c1ccc(CNCc2c[nH]cn2)cc1-c1ccccc1C)C(=O)O

- IC50 [4]: 0.5 nM
SMILES: COC(=O)[C@H](CCSC)NC(=O)c1ccc(NC[C@@H](N)CS)cc1-c1ccccc1

- IC50 [9]: 7000 nM
SMILES: C=C(C)[C@H](CC=C(C)C)C[C@]12C[C@H](CC=C(C)C)C(C)(C)[C@](CC=C(C)C)(C(=O)C(C(=O)c3ccc(O)c(O)c3)=C1O)C2=O
